Data published in patent publication US8937058B2, “17-hydroxy-19-nor-21-carboxylic acid-steroid γ-lactone derivative, use thereof, and medicament containing the derivative” (priority 2007, dated 2015).
Like-named read-outs stand apart in the source and are kept apart here.

How the values were obtained:
[1] = biological target: T1, androgen receptor (Homo sapiens (Human), UniProt P10275); conditions: for IC50: read-out: Androgen receptor IC50, receptor binding, 3H-testosterone displacement; for Androgen receptor Competition factor: reference substance 3H-testosterone
T1 sequence (P10275 whole entry, species assumed): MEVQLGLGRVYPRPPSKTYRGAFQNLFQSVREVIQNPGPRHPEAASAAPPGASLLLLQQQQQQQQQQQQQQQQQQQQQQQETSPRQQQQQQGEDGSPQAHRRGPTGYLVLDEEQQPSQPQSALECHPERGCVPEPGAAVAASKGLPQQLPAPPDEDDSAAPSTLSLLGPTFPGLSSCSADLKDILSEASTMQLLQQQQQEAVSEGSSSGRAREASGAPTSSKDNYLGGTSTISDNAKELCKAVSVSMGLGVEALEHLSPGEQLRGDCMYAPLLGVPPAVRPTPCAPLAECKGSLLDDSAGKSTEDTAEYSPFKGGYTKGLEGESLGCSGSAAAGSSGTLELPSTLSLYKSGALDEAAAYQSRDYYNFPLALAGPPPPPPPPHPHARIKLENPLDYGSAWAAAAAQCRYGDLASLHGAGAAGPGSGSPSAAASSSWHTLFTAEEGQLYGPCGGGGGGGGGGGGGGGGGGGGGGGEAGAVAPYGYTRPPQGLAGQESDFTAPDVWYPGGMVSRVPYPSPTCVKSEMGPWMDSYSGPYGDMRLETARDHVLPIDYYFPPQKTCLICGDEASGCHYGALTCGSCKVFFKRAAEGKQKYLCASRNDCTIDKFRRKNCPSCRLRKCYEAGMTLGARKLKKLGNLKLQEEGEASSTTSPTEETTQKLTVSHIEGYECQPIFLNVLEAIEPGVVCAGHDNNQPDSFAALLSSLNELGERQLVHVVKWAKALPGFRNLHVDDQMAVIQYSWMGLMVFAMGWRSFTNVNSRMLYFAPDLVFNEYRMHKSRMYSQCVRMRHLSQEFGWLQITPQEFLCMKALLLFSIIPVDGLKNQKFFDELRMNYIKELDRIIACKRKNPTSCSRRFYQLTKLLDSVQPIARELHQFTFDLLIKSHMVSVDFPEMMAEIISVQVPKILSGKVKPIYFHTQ
Method: 3. Androgen Receptor Binding Test:
The test was carried out as in 1., with the following modifications: cytosol from androgen receptor-expressing insect cells (Hi5) was used, and the reference substance was ^3H-testosterone.

[2] = biological target: T2, mineralocorticoid receptor (Homo sapiens (Human), UniProt P08235); assay: Mineralocorticoid receptor binding test (displacement of 3H-aldosterone, cytosol from Hi5 insect cells); conditions: reference substance 3H-aldosterone
T2 sequence (P08235 whole entry): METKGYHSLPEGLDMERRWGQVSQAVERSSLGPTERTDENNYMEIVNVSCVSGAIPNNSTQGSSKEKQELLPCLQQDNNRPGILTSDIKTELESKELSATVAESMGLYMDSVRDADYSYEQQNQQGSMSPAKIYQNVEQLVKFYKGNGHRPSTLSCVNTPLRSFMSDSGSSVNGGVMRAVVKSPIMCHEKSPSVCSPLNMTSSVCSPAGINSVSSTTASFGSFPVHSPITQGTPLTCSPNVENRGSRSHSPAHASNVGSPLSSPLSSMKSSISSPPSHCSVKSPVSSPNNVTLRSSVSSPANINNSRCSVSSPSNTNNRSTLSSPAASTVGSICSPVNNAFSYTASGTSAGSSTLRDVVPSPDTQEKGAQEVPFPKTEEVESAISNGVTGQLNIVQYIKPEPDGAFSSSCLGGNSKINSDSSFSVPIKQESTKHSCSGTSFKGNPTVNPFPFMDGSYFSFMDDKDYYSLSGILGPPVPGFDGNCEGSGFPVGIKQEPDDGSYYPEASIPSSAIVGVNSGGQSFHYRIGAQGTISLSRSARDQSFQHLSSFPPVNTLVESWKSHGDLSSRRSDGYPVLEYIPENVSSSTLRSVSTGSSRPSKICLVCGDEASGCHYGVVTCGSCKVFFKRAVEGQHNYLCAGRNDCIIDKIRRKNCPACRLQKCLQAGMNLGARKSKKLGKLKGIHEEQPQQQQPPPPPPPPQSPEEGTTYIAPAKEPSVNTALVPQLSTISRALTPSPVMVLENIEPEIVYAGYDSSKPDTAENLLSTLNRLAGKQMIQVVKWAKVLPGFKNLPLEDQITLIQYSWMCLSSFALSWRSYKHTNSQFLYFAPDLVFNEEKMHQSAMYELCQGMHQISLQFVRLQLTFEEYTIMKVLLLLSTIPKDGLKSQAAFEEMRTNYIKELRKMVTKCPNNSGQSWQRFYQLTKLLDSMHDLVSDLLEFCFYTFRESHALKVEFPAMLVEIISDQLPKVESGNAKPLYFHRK
Method: 2. Mineralocorticoid Receptor Binding Test:
The test was carried out as in 1., with the following modifications: cytosol from mineralocorticoid receptor-expressing insect cells (Hi5) was used, and the reference substance was ^3H-aldosterone.

[3] = biological target: fusion protein from the PR-ligand-binding domain and a Gal4-transactivation domain (Homo sapiens (Human), UniProt P06401); assay: cell-based; conditions: for Progesterone receptor Agonism efficacy / Progesterone receptor Agonism EC50: in-vitro transactivation, CHO K1 reporter cells; for Progesterone receptor Agonism EC50: 16 hours
fusion protein from the PR-ligand-binding domain and a Gal4-transactivation domain, sequence (P06401 679-913): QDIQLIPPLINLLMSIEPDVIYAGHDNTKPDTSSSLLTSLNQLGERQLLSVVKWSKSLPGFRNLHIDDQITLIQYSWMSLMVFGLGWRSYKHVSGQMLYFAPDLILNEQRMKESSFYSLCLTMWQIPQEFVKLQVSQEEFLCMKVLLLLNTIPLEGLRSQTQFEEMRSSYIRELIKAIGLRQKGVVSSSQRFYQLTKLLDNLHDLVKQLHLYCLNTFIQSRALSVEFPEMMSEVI
Method: 4. Determination of Progestational Action by Means of Transactivation Tests:
The test compounds were added eight hours later, and the cells were incubated with the compounds for 16 hours. The tests were carried out in triplicate. At the end of incubation the medium containing the effector was removed and replaced with lysis buffer. After luciferase assay substrate (Promega, #E1501) had been added, the 96-well plates were then put in a microplate luminometer (Pherastar, BMG Labtech), and the luminescence was measured. The IC50 values were evaluated using software for calculating dose-effect relations.

[4] = biological target: progesterone receptor (Homo sapiens (Human), UniProt P06401); conditions: for Progesterone receptor (PR) Competition factor: CF of 1 = affinity of progesterone, CF >1 lower affinity; for CF PR/CF MR: ratio of the competition factors CF(PR) and CF(MR); for IC50: read-out: Progesterone receptor (PR) IC50, receptor binding, 3H-progesterone displacement
progesterone receptor, sequence (P06401 whole entry, species assumed): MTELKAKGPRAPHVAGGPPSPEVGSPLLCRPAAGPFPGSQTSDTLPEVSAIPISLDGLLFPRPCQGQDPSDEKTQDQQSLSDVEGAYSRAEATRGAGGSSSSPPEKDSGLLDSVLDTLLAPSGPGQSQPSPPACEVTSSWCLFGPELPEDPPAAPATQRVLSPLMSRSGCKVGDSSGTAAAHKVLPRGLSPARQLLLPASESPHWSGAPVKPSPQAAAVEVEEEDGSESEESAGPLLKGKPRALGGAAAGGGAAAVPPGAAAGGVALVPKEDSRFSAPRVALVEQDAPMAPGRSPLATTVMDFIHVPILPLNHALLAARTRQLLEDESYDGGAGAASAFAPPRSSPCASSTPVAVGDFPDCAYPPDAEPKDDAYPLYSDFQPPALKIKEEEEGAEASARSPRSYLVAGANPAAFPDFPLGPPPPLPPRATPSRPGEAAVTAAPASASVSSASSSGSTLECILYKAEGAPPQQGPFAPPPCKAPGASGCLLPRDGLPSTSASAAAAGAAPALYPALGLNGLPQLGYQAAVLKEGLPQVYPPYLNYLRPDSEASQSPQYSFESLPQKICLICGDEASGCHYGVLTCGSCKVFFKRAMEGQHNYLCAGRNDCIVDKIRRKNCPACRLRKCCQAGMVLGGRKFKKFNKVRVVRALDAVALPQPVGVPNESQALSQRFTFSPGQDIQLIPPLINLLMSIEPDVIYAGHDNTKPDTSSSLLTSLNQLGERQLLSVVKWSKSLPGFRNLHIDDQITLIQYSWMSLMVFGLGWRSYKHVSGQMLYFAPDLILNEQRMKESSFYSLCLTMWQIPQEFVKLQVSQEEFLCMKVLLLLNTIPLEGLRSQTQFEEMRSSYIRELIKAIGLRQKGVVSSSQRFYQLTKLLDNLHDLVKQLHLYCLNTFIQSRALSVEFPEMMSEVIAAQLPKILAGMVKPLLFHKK
Method: Progesterone Receptor Binding Test:
Using cytosol from progesterone receptor-expressing insect cells (Hi5), competitive binding to the progesterone receptor was determined from the ability to displace ^3H-progesterone as reference substance from the receptor.

[5] = biological target: T2, mineralocorticoid receptor; assay: Antimineralocorticoid action by transactivation test (MDCK luciferase reporter cells); assay type: cell-based; conditions: in-vitro transactivation, 1 nM aldosterone; for IC50: read-out: Mineralocorticoid receptor Antagonism IC50
Method: 5. Determination of Antimineralocorticoid Action by Means of Transactivation Tests:
The antimineralocorticoid activity of the test substances was determined as for the transactivation tests described above.
The following modifications were undertaken: In this case reporter cell lines were used (MDCK cells) that express the human mineralocorticoid receptor, and transiently contain a reporter construct that contains luciferase under the control of a steroid hormone-responsive promoter.
For determination of antimineralocorticoid efficacy, 1 nM aldosterone (SIGMA A-6628, Lot 22H4033) was added to the cells, to achieve almost maximum stimulation of the reporter gene. Inhibition of the effect indicated a mineralocorticoid-antagonistic action of the substances (Table 2; for comparison, corresponding values for drospirenone (A)).

[6] = biological target: T1, androgen receptor; assay: cell-based; conditions: for Androgen receptor Agonism efficacy / Androgen receptor Antagonism efficacy: in-vitro transactivation, PC3 cells; for Androgen receptor Antagonism efficacy: 0.05 nM R1881
Method: 6. Determination of Androgenic/Antiandrogenic Action by Means of Transactivation Tests:
The androgenic/antiandrogenic action of the test substances was determined as for the transactivation tests described above.
The following modifications were made: In this case reporter cell lines were used (PC3 cells) that express the androgen receptor, and a reporter construct that contains luciferase under the control of a steroid hormone-responsive promoter.
For determination of the antiandrogenic efficacy, 0.05 nM R1881 was added to the cells, in order to achieve almost maximum stimulation of the reporter gene.

C=C[C@@H]1CC2=CC(=O)CC[C@@H]2[C@H]2CC[C@@]3(CC)[C@@H](CC[C@@]34C=CC(=O)O4)[C@@H]21 (stereo in doubt) [Example 10A, 17β-Hydroxy-7α-vinyl-18-methyl-19-nor-17α-pregna-4,20(Z)-dien-3-one-21-carboxylic acid γ-lactone]
IC50 [1]: 0.05 µM | Androgen receptor Competition factor [1]: 1.8 | Mineralocorticoid receptor (MR) Competition factor [2]: 5.1 | EC50 [3]: 0.14 µM | Progesterone receptor Agonism efficacy [3]: 52.4% | Progesterone receptor (PR) Competition factor [4]: 18.90 | CF PR/CF MR [4]: 3.71 | IC50 [4]: 0.45 µM | Mineralocorticoid receptor Antagonism efficacy [5]: 80.0% | IC50 [5]: 0.94 µM | EC50 [6]: 0.0013 µM | IC50 [6]: 1 µM | Androgen receptor Agonism efficacy [6]: 74.78% | Androgen receptor Antagonism efficacy [6]: 5%

CC[C@]12CC[C@H]3[C@@H]([C@H](C)CC4=CC(=O)CC[C@@H]43)[C@@H]1CC[C@@]21C=CC(=O)O1 (stereo in doubt) [Example 8A, 17β-Hydroxy-7α,18-dimethyl-19-nor-17α-pregna-4,20(Z)-dien-3-one-21-carboxylic acid γ-lactone]
IC50 [1]: 0.043 µM | Androgen receptor Competition factor [1]: 1.3 | Mineralocorticoid receptor (MR) Competition factor [2]: 1.0 | Progesterone receptor Agonism EC50 [3]: inactive | Progesterone receptor (PR) Competition factor [4]: 5.95 | CF PR/CF MR [4]: 5.95 | IC50 [4]: 0.16 µM | Mineralocorticoid receptor Antagonism efficacy [5]: 113.8% | IC50 [5]: 0.011 µM | EC50 [6]: 0.0017 µM | IC50 [6]: 1 µM | Androgen receptor Agonism efficacy [6]: 78.75% | Androgen receptor Antagonism efficacy [6]: 5%

CC[C@]12CC[C@H]3[C@@H]([C@H](C4CC4)CC4=CC(=O)CC[C@@H]43)[C@@H]1CC[C@@]21C=CC(=O)O1 (stereo in doubt) [Example 11A, 17β-Hydroxy-7α-cyclopropyl-18-methyl-19-nor-17α-pregna-4,20(Z)-dien-3-one-21-carboxylic acid γ-lactone]
IC50 [1]: 0.094 µM | Androgen receptor Competition factor [1]: 3.4 | Mineralocorticoid receptor (MR) Competition factor [2]: 2.4 | EC50 [3]: 0.12 µM | Progesterone receptor Agonism efficacy [3]: 47.7% | Progesterone receptor (PR) Competition factor [4]: 21.03 | CF PR/CF MR [4]: 8.76 | IC50 [4]: 0.5 µM | Mineralocorticoid receptor Antagonism efficacy [5]: 88.8% | IC50 [5]: 0.23 µM | EC50 [6]: 0.01 µM | IC50 [6]: 0.016 µM | Androgen receptor Agonism efficacy [6]: 41.38% | Androgen receptor Antagonism efficacy [6]: 34.45%

C[C@]12CC[C@H]3[C@@H](CCC4=C(Cl)C(=O)CC[C@@H]43)[C@@H]1CC[C@@]21C=CC(=O)O1 [Example 14, 4-Chloro-17β-hydroxy-19-nor-17α-pregna-4,20(Z)-dien-3-one-21-carboxylic acid γ-lactone]
IC50 [1]: 0.14 µM | Androgen receptor Competition factor [1]: 7.5 | Mineralocorticoid receptor (MR) Competition factor [2]: 39.0 | Progesterone receptor Agonism EC50 [3]: inactive | Progesterone receptor (PR) Competition factor [4]: 53.06 | CF PR/CF MR [4]: 1.36 | IC50 [4]: 1.2 µM | Mineralocorticoid receptor Antagonism efficacy [5]: 21.6% | IC50 [5]: 0.7 µM | EC50 [6]: 0.1 µM | IC50 [6]: 0.0705 µM | Androgen receptor Agonism efficacy [6]: 22.74% | Androgen receptor Antagonism efficacy [6]: 63.26%

C=C[C@@H]1CC2=CC(=O)CC[C@@H]2[C@H]2CC[C@@]3(C)[C@@H](CC[C@@]34C=CC(=O)O4)[C@@H]21 (stereo in doubt) [Example 4A, 17β-Hydroxy-7α-vinyl-19-nor-17α-pregna-4,20(Z)-dien-3-one-21-carboxylic acid γ-lactone]
IC50 [1]: 0.13 µM | Androgen receptor Competition factor [1]: 4.7 | Mineralocorticoid receptor (MR) Competition factor [2]: 18.7 | EC50 [3]: 0.14 µM | Progesterone receptor Agonism efficacy [3]: 67.5% | Progesterone receptor (PR) Competition factor [4]: 27.47 | CF PR/CF MR [4]: 1.47 | IC50 [4]: 0.76 µM | Mineralocorticoid receptor Antagonism efficacy [5]: 120.0% | IC50 [5]: 0.028 µM | EC50 [6]: 0.013 µM | IC50 [6]: 1 µM | Androgen receptor Agonism efficacy [6]: 53.6% | Androgen receptor Antagonism efficacy [6]: 5%

C[C@]12CC[C@H]3[C@@H](CCC4=CC(=O)CC[C@@H]43)[C@@H]1CC1(CC1)[C@@]21C=CC(=O)O1 (stereo in doubt) [Example 5, 16,16-(1,2-Ethanediyl)-17β-hydroxy-19-nor-17α-pregna-4,20(Z)-dien-3-one-21-carboxylic acid γ-lactone]
IC50 [1]: 0.31 µM | Androgen receptor Competition factor [1]: 33.8 | Mineralocorticoid receptor (MR) Competition factor [2]: 12.7 | EC50 [3]: 0.013 µM | Progesterone receptor Agonism efficacy [3]: 46.9% | Progesterone receptor (PR) Competition factor [4]: 3.31 | CF PR/CF MR [4]: 0.26 | IC50 [4]: 0.11 µM | Mineralocorticoid receptor Antagonism efficacy [5]: 73.1% | IC50 [5]: 0.84 µM | EC50 [6]: 0.14 µM | IC50 [6]: 1 µM | Androgen receptor Agonism efficacy [6]: 37.8% | Androgen receptor Antagonism efficacy [6]: 5%
